# Measurements as given in patent US12178801B1, “Stable psilocin salts, esters and conjugates and uses thereof” (LOBE SCIENCES LTD., priority 2022, dated 2024).
# Values joined by “and” are separate entries in the source; they are usually repeats but may differ in a detail not shown here. Equal entries are not always repeated. “Also recorded” adds a separate entry of the source.
# Assays:
# [1] = psilocin from psilocybin administration; cited from earlier work
# [2] = Stability studies on psilocin mucate capsule (appearance, HPLC assay and impurities, TM-022-0392); assay type: physicochemical; settings: for Assay TM-22-0392 (% Label Claim): specification 90.0-110.0%
# Method: Additional stability studies were performed on psilocin mucate (also known as psilocin mucic acid salt or conjugate or psilocin galactaric acid salt or conjugate) capsule.
# Appearance was evaluated by viewing of the sample on a watchglass over a black and white background.
# Assay conditions for Test/Method TM-022-0392 assessing stability and impurities were as follows: • Mobile phase: MPA: 945 mL water, 5 mL H3PO4 pH to 5.7 with NaOH; MPB: Acetonitrile • Diluent: 80:20 Water:MeOH • Standard: 0.4 mg/mL Psilocin Mucic RS in Diluent • Sample:0.4 mg/mL Psilocin Mucic AP in Diluent • HPLC Conditions are depicted in Table 3.
# *Additional equilibration may be required System suit: RSD NMT 2.0% (5 injections), Tailing NMT 2.0, Plate count NLT 10000
# Calculations were against a bracketing external standard.
# Identity of psilocin mucate was verified by ultraviolet (UV) assessment, wherein the UV spectrum of the main peak in the standard matched the UV spectrum of the main peak in the sample and by retention time wherein the retention time ratio was 0.98-1.02.
# healthy subjects = assay: Phase one single-dose study of psilocin mucic acid conjugate capsules: MMSE and mood assessment by psychiatrist; settings: single oral capsule 4.05 mg, equivalent to 2 mg psilocin
# [3] = psilocybin dose, equivalent to about 2 mg psilocin; cited from earlier work
smiles,measurement,setting,value
CN(C)CCc1c[nH]c2cccc(O)c12 [psilocin],Estimated dose-normalized bioavailability,[1],52.7%
CN(C)CCc1c[nH]c2cccc(O)c12.O=C(O)[C@@H](O)[C@H](O)[C@H](O)[C@@H](O)C(=O)O [psilocin mucate],Time for which demonstrated to be stable,[2],at least 7 months
same,"Appearance, Packaging: Labeled, amber glass bottle with white closure containing 15 partially filled white opaque capsules","[2]; capsule, 7 Months",Conforms
same,"Appearance, Product: White to light brown powder partially filling white opaque capsules","[2]; capsule, 7 Months",Conforms
same,Total Impurities TM-22-0392,"[2]; capsule, 7 Months",<0.05%
same,"Impurities TM-22-0392, individual impurities","[2]; capsule, 7 Months, all impurities",All <0.05%
same,Assay TM-22-0392 (% Label Claim),"[2]; capsule, 7 Months",101.7%
same,"Appearance, Packaging: Labeled, amber glass bottle with white closure containing 15 partially filled white opaque capsules","[2]; capsule, Initial",Conforms
same,"Appearance, Product: White to light brown powder partially filling white opaque capsules","[2]; capsule, Initial",Conforms
same,Total Impurities TM-22-0392,"[2]; capsule, Initial",0.08%
same,Assay TM-22-0392 (% Label Claim),"[2]; capsule, Initial",100.8%
same,FEELING STATUS,healthy subjects; one statement per subject (01-10),"Less anxious, better mood, increase their appetite; also recorded: Feel little beet happier, better energy; also recorded: Feel calm, less thoughts, happier mood; also recorded: Euphoric, better mood, it helps with life stress; also recorded: Euphories, better mood, sleepy, feel time is slower; also recorded: Sleepy, better thoughts, less worried in general; also recorded: Did not feel change in mood but feeling cold; also recorded: More relaxed, want to drink sweet tea, better; also recorded: Better mood, feels hyper sexual; also recorded: Felt high mood, now they feel in good way, ,"
same,MMSE,"healthy subjects; one value per subject (01-10), scores expected below 25 with a hallucinogenic substance",29 (2×) and 30 (3×) and 28 (3×) and 27 (2×)
"CN(C)CCc1c[nH]c2cccc(OP(=O)(O)O)c12 [psilocybin, Psilocybin]",Lowest dose with reported hallucinogenic effects coupled with increased anxiety,[3],5 mg
